Tests used:
[1] = Cytotoxicity, MTT method, HPC non-malignant cells; format: cell-based, human; settings: human, pulp cells (HPC), non-malignant, mean ± SD
Protocol: (§1) Human promyelocytic leukemia [HL-60 (RCB3683)] (purchased from Riken Cell Bank, Tsukuba, Japan) was cultured at 37 °C in RPMI1640 medium (Fujifilm Wako Pure Chemical Co., Osaka, Japan) supplemented with 10% heat (56 °C, 30 min) inactivated FBS (Sigma-Aldrich Inc. St. Louis, MO, USA), 100 U/mL penicillin G, and 100 µg/mL streptomycin sulfate in a humidified 5% CO2 incubator (MCO-170 AICUVD-P, Panasonic Healthcare Co., Ltd., Gunma, Japan). Human oral squamous cell carcinoma (OSCC) cell lines derived from tongue [HSC-2 (RCB1945), HSC-3 (RCB1975), HSC-4 (RCB1902)] (Riken Cell Bank), and human normal oral cells (gingival fibroblasts, HGF; pulp cell, HPC; periodontal ligament fibroblast, HPLF), established from the first premolar extracted tooth in the lower jaw and periodontal tissues of a child, according to the guidelines of Meikai University Ethic Committee (No. A0808), were cultured in DMEM medium (Fujifilm Wako Pure Chemical Co.) supplemented with 10% FBS and antibiotics. The compounds in Series 2–4 were evaluated against HL-60, HSC-2, HSC-3, HSC-4, HGF, HPC, and HPLF cells based on a literature procedure, as described previously. In brief, near confluent cells were incubated in triplicate for 48 h at 37 °C with different concentrations ([…], 6.3, 12.5, 25, 50, 100 µM) of the compounds; then, viable cell numbers were measured using the MTT method. From the dose–response curve, a 50% cytotoxic concentration (CC50) was determined. All samples were dissolved in dimethylsulfoxide (DMSO). The toxicity of DMSO alone was calculated and subtracted. The CC50 values were determined from dose–response curves.

[2] = test system: human oral squamous cell carcinoma HSC-2 cells; assay: Cytotoxicity, MTT method, HSC-2 cells; format: cell-based; settings: for CC50: Homo sapiens, HSC-2, 48 h, MTT, mean ± SD, read-out: CC50 HSC-2; for SI (selectivity index) HSC-2: average CC50 non-malignant cells / CC50 HSC-2
Protocol: as §1

[3] = Cytotoxicity, MTT method, HGF non-malignant cells; format: cell-based, human; settings: human, gingival fibroblasts (HGF), non-malignant, mean ± SD
Protocol: as §1

[4] = test system: human promyelocytic leukemia HL-60 cells; assay: Cytotoxicity, MTT method, HL-60 cells; format: cell-based; settings: for CC50: Homo sapiens, HL-60, 48 h, MTT, mean ± SD, read-out: CC50 HL-60; for SI (selectivity index) HL-60: average CC50 non-malignant cells / CC50 HL-60
Protocol: as §1

[5] = Cytotoxicity, MTT method, HPLF non-malignant cells; format: cell-based, human; settings: human, periodontal ligament fibroblasts (HPLF), non-malignant, mean ± SD
Protocol: as §1

[6] = test system: human oral squamous cell carcinoma HSC-4 cells; assay: Cytotoxicity, MTT method, HSC-4 cells; format: cell-based; settings: for CC50: Homo sapiens, HSC-4, 48 h, MTT, mean ± SD, read-out: CC50 HSC-4; for SI (selectivity index) HSC-4: average CC50 non-malignant cells / CC50 HSC-4
Protocol: as §1

[7] = test system: human oral squamous cell carcinoma HSC-3 cells; assay: Cytotoxicity, MTT method, HSC-3 cells; format: cell-based; settings: for CC50: Homo sapiens, HSC-3, 48 h, MTT, mean ± SD, read-out: CC50 HSC-3; for SI (selectivity index) HSC-3: average CC50 non-malignant cells / CC50 HSC-3
Protocol: as §1

[8] = test system: human tumour cell lines HL-60, HSC-2, HSC-3, HSC-4; assay: Cytotoxicity, average over the four human tumour cell lines; format: cell-based; settings: for CC50: Homo sapiens, average of HL-60, HSC-2, HSC-3, HSC-4, read-out: AVE. CC50, human tumour cell lines; for AVE SI: average of the four SI values; for PSE (potency-selectivity expression): product of reciprocal of average CC50 (neoplastic cells) and average SI times 100; for CC50 values in all four bioassays (range in words): HL-60, HSC-2, HSC-3, HSC-4
Protocol: as §1

[9] = Cytotoxicity, average over the three human normal cells; format: cell-based; settings: human, average of HGF, HPC, HPLF; read-out: AVE CC50, human normal cells
Protocol: as §1

| SMILES | CC50 at 48 h [1] [nM] | CC50 [2] [nM] | SI (selectivity index) HSC-2 [2] | CC50 at 48 h [3] [nM] | CC50 [4] [nM] | SI (selectivity index) HL-60 [4] | CC50 at 48 h [5] [nM] | CC50 [6] [nM] | SI (selectivity index) HSC-4 [6] | CC50 [7] [nM] | SI (selectivity index) HSC-3 [7] | CC50 [8] [nM] | AVE SI [8] | PSE (potency-selectivity expression) [8] | CC50 at 48 h [9] [nM] | CC50 values in all four bioassays (range in words) [8] |
| --- | --- | --- | --- | --- | --- | --- | --- | --- | --- | --- | --- | --- | --- | --- | --- | --- |
| O=C1/C(=C/c2ccccc2)CN(C(=O)C(=O)N2C/C(=C\c3ccccc3)C(=O)/C(=C/c3ccccc3)C2)C/C1=C\c1ccccc1 [Compound 2a] | 680 ± 73 | 85 ± 13 | 38.4 | 3800 ± 520 | 110 ± 9 | 29.6 | 5300 ± 500 | 200 ± 11 | 16.3 | 150 ± 22 | 21.7 | 140 | 26.5 | > 100 | 3260 |  |
| O=C1/C(=C/c2ccc(F)cc2)CN(C(=O)C(=O)N2C/C(=C\c3ccc(F)cc3)C(=O)/C(=C/c3ccc(F)cc3)C2)C/C1=C\c1ccc(F)cc1 [Compound 2b] | 1400 ± 110 | 37 ± 9 | 40.5 | 1200 ± 100 | 37 ± 17 | 40.5 | 1900 ± 360 | 33 ± 9 | 45.5 | 66 ± 8 | 22.7 | 40 | 37.3 |  | 1500 | double-digit nanomolar range |
| O=C1/C(=C/c2ccc(Cl)c(Cl)c2)CN(C(=O)C(=O)N2C/C(=C\c3ccc(Cl)c(Cl)c3)C(=O)/C(=C/c3ccc(Cl)c(Cl)c3)C2)C/C1=C\c1ccc(Cl)c(Cl)c1 [Compound 2d] | 23000 ± 3100 | 5900 ± 120 | 5.81 | 36000 ± 3100 | 8400 ± 17 | 4.08 | 44000 ± 3200 | 6400 ± 150 | 5.36 | 8400 ± 870 | 4.08 | 7280 | 4.83 |  | 34300 |  |
| Cc1ccc(/C=C2\CN(C(=O)C(=O)N3C/C(=C\c4ccc(C)cc4)C(=O)/C(=C/c4ccc(C)cc4)C3)C/C(=C\c3ccc(C)cc3)C2=O)cc1 [Compound 2e] | 23000 ± 1200 | 1800 ± 250 | 25.0 | 45000 ± 4600 | 2700 ± 780 | 16.7 | 67000 ± 4500 | 2300 ± 250 | 19.6 | 4300 ± 1100 | 10.5 | 2780 | 18.0 |  | 45000 |  |
| COc1ccc(/C=C2\CN(C(=O)C(=O)N3C/C(=C\c4ccc(OC)c(OC)c4)C(=O)/C(=C/c4ccc(OC)c(OC)c4)C3)C/C(=C\c3ccc(OC)c(OC)c3)C2=O)cc1OC [Compound 2f] | 2400 ± 700 | 420 ± 25 | 29.8 | 24000 ± 1100 | 190 ± 26 | 65.8 | 11000 ± 980 | 160 ± 24 | 78.1 | 230 ± 97 | 54.4 | 250 | 57.0 |  | 12500 |  |
| COc1cc(/C=C2\CN(C(=O)C(=O)N3C/C(=C\c4cc(OC)c(OC)c(OC)c4)C(=O)/C(=C/c4cc(OC)c(OC)c(OC)c4)C3)C/C(=C\c3cc(OC)c(OC)c(OC)c3)C2=O)cc(OC)c1OC [Compound 2g] | 280 ± 70 | 63 ± 9 | 9.05 | 470 ± 140 | 37 ± 2 | 15.4 | 950 ± 12 | 88 ± 29 | 6.48 | 35 ± 6 | 16.3 | 60 | 11.8 | > 100 | 570 | double-digit nanomolar range |
| O=C1/C(=C/c2ccccc2)CN(C(=O)CC(=O)N2C/C(=C\c3ccccc3)C(=O)/C(=C/c3ccccc3)C2)C/C1=C\c1ccccc1 [Compound 3a] | 360 ± 100 | 50 ± 1 | 18.4 | 1100 ± 10 | 46 ± 9 | 20.0 | 1300 ± 330 | 84 ± 5 | 11.0 | 46 ± 26 | 20.0 | 60 | 17.4 |  | 920 | double-digit nanomolar range |
| Cc1ccc(/C=C2\CN(C(=O)CC(=O)N3C/C(=C\c4ccc(C)cc4)C(=O)/C(=C/c4ccc(C)cc4)C3)C/C(=C\c3ccc(C)cc3)C2=O)cc1 [Compound 3e] | 19000 ± 2700 | 1600 ± 390 | 15.4 | 20000 ± 1300 | 1400 ± 150 | 17.6 | 35000 ± 4200 | 1900 ± 150 | 13.0 | 2200 ± 200 | 11.2 | 1780 | 14.3 |  | 24700 |  |
| COc1ccc(/C=C2\CN(C(=O)CC(=O)N3C/C(=C\c4ccc(OC)c(OC)c4)C(=O)/C(=C/c4ccc(OC)c(OC)c4)C3)C/C(=C\c3ccc(OC)c(OC)c3)C2=O)cc1OC [Compound 3f] | 1600 ± 78 | 340 ± 76 | 4.41 | 1100 ± 84 | 260 ± 21 | 5.77 | 1800 ± 50 | 128 ± 14 | 11.7 | 200 ± 140 | 7.50 | 230 | 7.35 |  | 1500 |  |
| COc1cc(/C=C2\CN(C(=O)CC(=O)N3C/C(=C\c4cc(OC)c(OC)c(OC)c4)C(=O)/C(=C/c4cc(OC)c(OC)c(OC)c4)C3)C/C(=C\c3cc(OC)c(OC)c(OC)c3)C2=O)cc(OC)c1OC [Compound 3g] | 180 ± 30 | 65 ± 16 | 2.92 | 93 ± 20 | 30 ± 0.2 | 6.33 | 300 ± 47 | 38 ± 9 | 5.00 | 35 ± 5 | 5.43 | 40 | 4.92 | > 100 | 190 | double-digit nanomolar range |
| O=C1/C(=C/c2ccccc2)CN(CCCN2C/C(=C\c3ccccc3)C(=O)/C(=C/c3ccccc3)C2)C/C1=C\c1ccccc1 [Compound 4] | 3700 ± 2000 | 210 ± 32 | 19.1 | 3000 ± 210 | 180 ± 11 | 22.2 | 5300 ± 610 | 83 ± 21 | 48.2 | 350 ± 110 | 11.4 | 210 | 25.2 | > 100 | 4000 |  |
